This is an account of results in patent publication US4105766A, “4,5-Dihydro-5-oxopyrazolo[1,5-a]quinazoline-3-carboxylic acid derivatives” (Sterling Drug Inc., priority 1977, dated 1978).

What all share (assay type): in vivo
For assay [1], the system named is passive cutaneous anaphylaxis. Briefly: passive cutaneous anaphylaxis test in rats (anti-allergy). The note with it: rats; for inhibition in vivo at 100 mg/kg / ED50: Rattus norvegicus, po; for inhibition in vivo at 100 mg/kg / % Inhibition (passive cutaneous anaphylaxis): standard dose of 100 mg./kg. (p.o.); for R (ratio, passive cutaneous anaphylaxis): R 1.0 to 2.0 inactive, 2.0 to 4.0 weakly active, 4.0 to 8.0 moderately active, >8.0 strongly active; for ED50: passive cutaneous anaphylaxis, read-out: Average Effective Dose50 (AED50). The source says:
(1) The inhibition of carrageenin-induced foot edema test essentially described by Winter et al., Proc. Soc. Exp. Biol. and Med. 111, 544 (1962) as modified by Van Arman et al., J. Pharmacol. Exptl. Therap. 150, 328 (1965) and (2) a modification of the inhibition of adjuvant-induced arthritis test described by Pierson, J. Chronic Diseases 16, 863 (1963) and Glenn et al., Am. J. Vet. Res. 26, 1180 (1965), which were used to establish the anti-inflammatory activities of the compounds; and the passive cutaneous anaphylaxis test described by Mielens et al., Int. Arch. Allergy Appl. Immunol. 47, 633-649 (1974) which was used to establish the anti-allergy activity of the compounds.
Results are expressed either in terms of % Inhibition at a standard dose of 100 mg./kg. (p.o.), as an Average Effective Dose50 (AED50), or as a ratio, R, where: [formula]

In assay [2] the test system is carrageenin-induced foot edema. Briefly: carrageenin-edema test (CE), inhibition of carrageenin-induced foot edema in rats. The note with it: Rattus norvegicus, read-out: % Inhibition C.E.; for inhibition in vivo at 324 µmol/kg: dose .324 mmole/kg.; for inhibition in vivo at 80 µmol/kg: dose .08 mmole/kg. As for the experimental part:
(1) The inhibition of carrageenin-induced foot edema test essentially described by Winter et al., Proc. Soc. […] Therap. […] J. Vet. […] Arch. Allergy Appl. Immunol.
Here, and elsewhere in other tables which follow, compounds are identified by the Example number above where their preparations are recorded. For purposes of comparison, data are also given for the reference compound 4,5-dihydro-5-oxopyrazolo[1,5-a]quinazoline-3-carboxylic acid disclosed by Wright, ibid., identified here and elsewhere in the tables which follow as "Ref.".

Assay [3] concerns adjuvant-induced arthritis. Briefly: adjuvant arthritis test (AA), inhibition of adjuvant-induced arthritis in rats. The conditions noted are these: Rattus norvegicus; for inhibition in vivo at 80 µmol/kg: dose .08 mmole/kg.; for inhibition in vivo at 20 µmol/kg: dose .02 mmole/kg.; for inhibition in vivo at 324 µmol/kg: dose .324 mmole/kg.

`CCOC(=O)c1cnn2c1[nH]c(=O)c1cc(C)ccc12` [Example 1A] gave an inhibition in vivo at 100 mg/kg in assay [1] of 63%.

Turning to `CCOC(=O)c1cnn2c1[nH]c(=O)c1ccc(C)cc12` [Example 1B], the “% Inhibition (passive cutaneous anaphylaxis)” value in assay [1] is “Inac”.

Regarding `CCOC(=O)c1cnn2c1[nH]c(=O)c1cc(Cl)ccc12` [Example 1C], in assay [1], the inhibition in vivo at 100 mg/kg was found to be 48%.

`CCOC(=O)c1cnn2c1[nH]c(=O)c1cc(F)ccc12` [Example 1E]: in assay [1], the “% Inhibition (passive cutaneous anaphylaxis)” value is on record as “Inac”.

In the case of `CCOC(=O)c1cnn2c3cc(C)ccc3c(=O)n(C)c12` [Example 2G], in assay [1], the inhibition in vivo at 100 mg/kg is 46%.

In the case of `CCOC(=O)c1cnn2c3ccc(F)cc3c(=O)n(C)c12` [Example 2K], in assay [1], the “R (ratio, passive cutaneous anaphylaxis)” value is listed as 3.0.

For the compound `CCn1c(=O)c2ccccc2n2ncc(C(=O)O)c12` [Example 7A], in assay [1], the ED50 was found to be 12 mg/kg and the inhibition in vivo at 100 mg/kg came to 81%. In addition, the inhibition in vivo at 324 µmol/kg in assay [2] stood at 33%. For the same compound, in assay [3], the inhibition in vivo at 80 µmol/kg is 27%.

The compound `C=CCn1c(=O)c2ccccc2n2ncc(C(=O)O)c12` [Example 7B, 4-(2-propenyl)-4,5-dihydro-5-oxopyrazolo[1,5-a]quinazoline-3-carboxylic acid] came in with an inhibition in vivo at 100 mg/kg in assay [1] of 40%. Moreover, in assay [2], the inhibition in vivo at 80 µmol/kg was 38% and the inhibition in vivo at 324 µmol/kg is 73%. Further, in assay [3], the inhibition in vivo at 20 µmol/kg stood at 18%, the inhibition in vivo at 80 µmol/kg was found to be 34% and the inhibition in vivo at 324 µmol/kg was determined as 84%.

Regarding `O=C(O)c1cnn2c3ccccc3c(=O)n(CC3CC3)c12` [Example 7C], the “R (ratio, passive cutaneous anaphylaxis)” value in assay [1] was determined as 6.5. Besides, in assay [2], the inhibition in vivo at 80 µmol/kg amounted to 25% and the inhibition in vivo at 324 µmol/kg was 33%. Moreover, the inhibition in vivo at 324 µmol/kg in assay [3] worked out at 74%.

For the compound `C=C(C)Cn1c(=O)c2ccccc2n2ncc(C(=O)O)c12` [Example 7D], in assay [1], the “R (ratio, passive cutaneous anaphylaxis)” value stood at 4.6. Also, the inhibition in vivo at 80 µmol/kg in assay [2] was 15%. For the same compound, the figures for the inhibition in vivo at 324 µmol/kg in assay [2] and in assay [3] were 24% and 43%, respectively.

Regarding `CC(C)=CCn1c(=O)c2ccccc2n2ncc(C(=O)O)c12` [Example 7E], the “R (ratio, passive cutaneous anaphylaxis)” value in assay [1] came to 3.8. In addition, the inhibition in vivo at 80 µmol/kg in assay [2] is 3%. The figures for the inhibition in vivo at 324 µmol/kg in assay [2] and in assay [3] were 4% and 34%, respectively.

`Cc1ccc2c(c1)c(=O)[nH]c1c(C(=O)O)cnn12` [Example 7F]: in assay [1], the inhibition in vivo at 100 mg/kg was found to be 65%.

Regarding `Cc1ccc2c(=O)[nH]c3c(C(=O)O)cnn3c2c1` [Example 7G], the ED50 in assay [1] was ~15 mg/kg.

Turning to `O=C(O)c1cnn2c1[nH]c(=O)c1cc(Cl)ccc12` [Example 7J], in assay [1], the ED50 was in the range of 5 to 10 mg/kg and the inhibition in vivo at 100 mg/kg stood at 92%.

As for `C=CCn1c(=O)c2cc(F)ccc2n2ncc(C(=O)O)c12` [Example 7Q], in assay [2], the inhibition in vivo at 80 µmol/kg was found to be 0% and the inhibition in vivo at 324 µmol/kg worked out at 4%. Also, in assay [3], the inhibition in vivo at 324 µmol/kg stood at 72%.

On to `Cn1c(=O)c2cc(Br)ccc2n2ncc(C(=O)O)c12` [Example 7R], for which the inhibition in vivo at 100 mg/kg in assay [1] came to 63%.

For `Cn1c(=O)c2cc([N+](=O)[O-])ccc2n2ncc(C(=O)O)c12` [Example 7S], in assay [1], the ED50 is 37 mg/kg.

Regarding `C=CCn1c(=O)c2ccccc2n2ncc(C(=O)O)c12` [Example 8, sodium 4-(2-propenyl)-4,5-dihydro-5-oxopyrazolo[1,5-a]quinazoline-3-carboxylate], the inhibition in vivo at 90 µmol/kg in assay [2] (dose .09 mmole/kg.) stood at 20%. Moreover, the inhibition in vivo at 360 µmol/kg in assay [2] (dose .36 mmole/kg.) turned out to be 31%. Further, in assay [3], the inhibition in vivo at 20 µmol/kg came to 29%, the inhibition in vivo at 80 µmol/kg is 47% and the inhibition in vivo at 324 µmol/kg is 80%.

In the case of `Cn1c(=O)c2ccccc2n2ncc(C(=O)OCOC(=O)C(C)(C)C)c12` [Example 9, pivaloyloxymethyl 4-methyl-4,5-dihydro-5-oxopyrazolo[1,5-a]quinazoline-3-carboxylate], in assay [1], the “R (ratio, passive cutaneous anaphylaxis)” value is listed as 6.7.
